This note sets out measurements from ChEMBL document CHEMBL3994651, “Physapubescin, a natural withanolide as a kidney-type glutaminase (KGA) inhibitor” (Bioorg Med Chem Lett, 2017).

Calls of active or inactive are those of the source. No cut-off for these calls is given here.

One test deals with HT-1080. As to the kind of experiment: Cytotoxicity against human HT1080 cells assessed as growth inhibition after 48 hrs by CCK8 assay. The test is classed as functional, cell-based. To be noted: HT-1080, 48 h.
The next test has as its system HCC827. Description: Cytotoxicity against human erlotinib-resistant HCC827 cells assessed as growth inhibition after 48 hrs by CCK8 assay. The test is classed as functional, cell-based. The conditions noted are these: HCC827, 48 h.
The target of test [1] is T1, Glutaminase kidney isoform, mitochondrial (Homo sapiens, UniProt O94925).
T1 sequence (O94925 whole entry): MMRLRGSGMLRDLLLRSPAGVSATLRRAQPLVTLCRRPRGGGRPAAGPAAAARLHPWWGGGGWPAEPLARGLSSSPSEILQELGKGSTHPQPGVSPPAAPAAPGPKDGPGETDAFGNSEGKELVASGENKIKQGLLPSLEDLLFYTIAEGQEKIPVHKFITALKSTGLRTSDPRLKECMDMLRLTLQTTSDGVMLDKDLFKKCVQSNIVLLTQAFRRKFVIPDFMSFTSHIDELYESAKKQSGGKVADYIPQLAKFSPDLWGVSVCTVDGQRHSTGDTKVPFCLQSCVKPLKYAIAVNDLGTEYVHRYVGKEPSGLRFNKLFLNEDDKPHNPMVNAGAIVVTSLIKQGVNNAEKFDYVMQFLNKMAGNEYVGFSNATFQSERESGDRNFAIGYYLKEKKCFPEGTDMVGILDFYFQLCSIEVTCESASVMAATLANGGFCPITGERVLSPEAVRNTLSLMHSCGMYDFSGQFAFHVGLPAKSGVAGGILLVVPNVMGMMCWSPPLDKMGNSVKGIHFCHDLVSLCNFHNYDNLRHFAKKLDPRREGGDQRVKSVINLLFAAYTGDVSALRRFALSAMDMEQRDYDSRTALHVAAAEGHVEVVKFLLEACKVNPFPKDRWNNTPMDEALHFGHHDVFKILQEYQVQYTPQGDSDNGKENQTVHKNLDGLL
Description: Inhibition of recombinant KGA (unknown origin) using glutamine as substrate.

Test [2] deals with T2, Glutaminase kidney isoform, mitochondrial (Homo sapiens) (UniProt O94925).
T2 sequence (whole entry): T1 sequence (O94925 whole entry)
Description: Competitive inhibition of recombinant KGA (unknown origin) at 40 uM using varying levels of glutamine substrate measured within 1 to 4 mins.

Test [3] concerns the target T1, Glutaminase kidney isoform, mitochondrial. As to the kind of experiment: Binding affinity to NT-647-NHS-labelled KGA (unknown origin) after 10 mins by microscale thermophoresis method.
Another test has as its system L929. Description: Cytotoxicity against mouse L929 cells assessed as growth inhibition after 48 hrs by CCK8 assay. The test is classed as cell-based. The conditions noted are these: L929, 48 h.
The subject of a further test is L02. As to the kind of experiment: Cytotoxicity against human LO2 cells assessed as growth inhibition after 48 hrs by CCK8 assay. To be noted: L02, 48 h. The test is classed as cell-based.
The next test relates to Vero. As to the kind of experiment: Cytotoxicity against monkey Vero cells assessed as growth inhibition after 48 hrs by CCK8 assay. Type of test: cell-based. To be noted: Chlorocebus sabaeus.

On to `O=C(Cc1cccc(OC(F)(F)F)c1)Nc1ccc(CCCCc2nnc(NC(=O)Cc3ccccn3)s2)nn1`, for which the values for the IC50 in the test on HT-1080 and in the test on HCC827 were 44.4 µM and 51.4 µM, respectively.

`C[C@@H]([C@H]1CC[C@H]2[C@@H]3CC=C4C[C@@H](O)C[C@H](O)[C@]4(C)[C@H]3CC[C@]12C)[C@H]1C[C@@](C)(O)[C@](C)(O)C(O)O1` (some centres not stated): the results for the IC50 (in the test on HT-1080; in test [1]; in the test on HCC827) were greater than 200 µM, greater than 100 µM and greater than 200 µM, respectively.

As for `C[C@@H]([C@H]1CC[C@H]2[C@@H]3CC=C4C[C@@H](O)C[C@H](O)[C@]4(C)[C@H]3CC[C@]12C)[C@H]1C[C@](C)(O)[C@](C)(O)C(=O)O1`, the IC50 in the test on HT-1080 is greater than 200 µM; in test [1], greater than 100 µM; in the test on HCC827, greater than 200 µM.

For `CC(=O)O[C@H]1C[C@H]([C@H](C)[C@H]2C[C@]3(C)O[C@]3(C)[C@H](O)O2)[C@@]2(C)CC[C@H]3[C@@H](C[C@@H]4O[C@]45[C@@H](O)C=CC(=O)[C@]35C)[C@H]12`, the inhibition entry in test [2] is “Active”. Moreover, the Kd in test [3] stood at 4.95 µM. The IC50 is 10.4 µM in the test with L929; 6.99 µM in the test on HT-1080; 10.4 µM in the test with L02; 9.89 µM in test [1]; 2.76 µM in the test with HCC827; 12.4 µM in the test with Vero.

`O=C(Cc1ccccc1)Nc1nnc(CCSCCc2nnc(NC(=O)Cc3ccccc3)s2)s1`: the IC50 in the test with HT-1080 was 47.7 µM; in the test with HCC827, 42.4 µM.

As for `C[C@@H]([C@H]1CC[C@H]2[C@@H]3CC=C4C[C@@H](O[C@@H]5O[C@H](CO[C@@H]6O[C@H](CO)[C@@H](O)[C@H](O)[C@H]6O)[C@@H](O)[C@H](O)[C@H]5O)C[C@H](O)[C@]4(C)[C@H]3CC[C@]12C)[C@H]1C[C@@](C)(O)[C@](C)(O)C(O)O1` (some centres not stated), the figures for the IC50 (in the test with HT-1080; in test [1]; in the test on HCC827) were greater than 200 µM, greater than 100 µM and greater than 200 µM, respectively.

Consider `CO[C@@H]1O[C@@H]([C@@H](C)[C@H]2CC[C@H]3[C@@H]4CC=C5C[C@@H](O[C@@H]6O[C@H](CO[C@@H]7O[C@H](CO)[C@@H](O)[C@H](O)[C@H]7O)[C@@H](O)[C@H](O)[C@H]6O)C[C@H](O)[C@]5(C)[C@H]4CC[C@]23C)C[C@](C)(OC)[C@]1(C)O`, for which the values for the IC50 (in the test with HT-1080; in test [1]; with HCC827) were greater than 200 µM, greater than 100 µM and greater than 200 µM, respectively.

As to `C[C@@H]([C@H]1CC[C@H]2[C@@H]3CC=C4C[C@@H](O[C@@H]5O[C@H](CO[C@@H]6O[C@H](CO)[C@@H](O)[C@H](O)[C@H]6O)[C@@H](O)[C@H](O)[C@H]5O)C[C@H](O)[C@]4(C)[C@H]3CC[C@]12C)[C@H]1C[C@](C)(O)[C@](C)(O)C(=O)O1`, the values for the IC50 (in the test on HT-1080; in test [1]; in the test on HCC827) were greater than 200 µM, greater than 100 µM and greater than 200 µM, respectively.
